# Data: patent US7737142B2, “(Thio) carbamoyl-cyclohexane derivatives as D3/D2 receptor antagonists” (Richter Gedeon Vegyeszeti Gyar Rt., priority 2003, dated 2010)
# Legend:
# [1] = molecular target: Alpha-1 receptor (rat brain cortical membrane preparation); test: Alpha-1 receptor binding ([3H]-prasosin); details: rat brain cortical membranes, [3H]-prasosin 0.5 nM; read-out: Alfa-1 IC-50
# [2] = molecular target: T1, rat recombinant D3 receptors (expressed in Sf9 cells) (Rattus norvegicus, UniProt P19020); test: D3 receptor binding ([3H]-spiperone); details: [3H]-spiperone 0.85 nM, read-out: D3 IC-50
# T1 construct: purchased Packard BioScience, BioSignal Packard Inc. 6110139; host or cells: Sf9 cells
# [3] = molecular target: T2, D2 receptor (rat brain striatal membrane preparation) (Rattus norvegicus, UniProt P61169); test: D2 receptor binding ([3H]-spiperone); details: rat brain striatal membranes, [3H]-spiperone 0.6 nM; read-out: D2 IC-50
# T2 construct: on rat brain striatal membrane preparation; from tissue; host or cells: rat brain striatum membranes
# T2 sequence (P61169 whole entry): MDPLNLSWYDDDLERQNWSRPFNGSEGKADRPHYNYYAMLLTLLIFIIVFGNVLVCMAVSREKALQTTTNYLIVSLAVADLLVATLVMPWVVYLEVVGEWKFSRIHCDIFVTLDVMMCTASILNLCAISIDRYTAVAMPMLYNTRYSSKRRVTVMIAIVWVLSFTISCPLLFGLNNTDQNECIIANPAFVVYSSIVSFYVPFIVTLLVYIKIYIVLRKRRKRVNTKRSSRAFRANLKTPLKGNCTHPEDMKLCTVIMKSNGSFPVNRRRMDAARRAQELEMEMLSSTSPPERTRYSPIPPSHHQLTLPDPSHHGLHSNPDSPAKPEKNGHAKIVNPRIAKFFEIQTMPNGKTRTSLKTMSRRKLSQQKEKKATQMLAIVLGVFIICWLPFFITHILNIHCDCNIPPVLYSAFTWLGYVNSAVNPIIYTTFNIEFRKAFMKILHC
# T1 sequence (P19020 whole entry): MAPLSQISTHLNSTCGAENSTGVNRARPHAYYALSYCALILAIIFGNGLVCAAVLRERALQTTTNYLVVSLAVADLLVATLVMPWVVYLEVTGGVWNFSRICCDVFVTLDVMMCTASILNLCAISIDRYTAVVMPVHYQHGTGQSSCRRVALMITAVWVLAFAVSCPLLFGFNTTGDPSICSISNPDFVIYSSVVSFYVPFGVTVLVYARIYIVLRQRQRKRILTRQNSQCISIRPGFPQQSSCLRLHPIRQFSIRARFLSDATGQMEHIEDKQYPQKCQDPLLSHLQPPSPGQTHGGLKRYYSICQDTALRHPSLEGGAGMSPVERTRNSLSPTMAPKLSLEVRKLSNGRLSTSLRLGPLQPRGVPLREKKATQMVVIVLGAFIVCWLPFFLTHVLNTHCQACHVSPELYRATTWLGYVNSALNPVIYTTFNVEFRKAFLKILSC
IC50 [1],IC50 [2],melting point,IC50 [3],SMILES
> 200 nM,1 to 10 nM,–,–,"COC(=O)C(NC(=O)N[C@H]1CC[C@H](CCN2CCN(c3cccc(Cl)c3Cl)CC2)CC1)C(C)C (relative stereo) [Compound 29, trans-2-[3-(4-{2-[4-(2,3-Dichloro-phenyl)-piperazin-1-yl]-ethyl}-cyclohexyl)-ureido]-3-methyl-butyric acid methyl ester]"
> 200 nM,< 1 nM,235 to 238 °C,–,"CCNC(=O)N[C@H]1CC[C@H](CCN2CCN(c3cccc(Cl)c3Cl)CC2)CC1 [Compound 2, Trans-1-{4-[2-[4-(2,3-dichlorophenyl)-piperazin-1-yl]-ethyl]-cyclohexyl}-3-ethyl-urea]"
> 200 nM,< 1 nM,218 to 220 °C,10 to 50 nM,"CCCNC(=O)N[C@H]1CC[C@H](CCN2CCN(c3cccc(Cl)c3Cl)CC2)CC1 [Compound 4, trans-1-{4-[2-[4-(2,3-dichlorophenyl)-piperazin-1-yl]-ethyl]-cyclohexyl}-3-propyl-urea]"
> 200 nM,< 1 nM,227 to 230 °C,10 to 50 nM,"CC(C)NC(=O)N[C@H]1CC[C@H](CCN2CCN(c3cccc(Cl)c3Cl)CC2)CC1 [Compound 5, trans-1-{4-[2-[4-(2,3-dichlorophenyl)-piperazin-1-yl]-ethyl]-cyclohexyl}-3-isopropyl-urea]"
> 200 nM,< 1 nM,115 to 118 °C,10 to 50 nM,"CCNC(=O)N[C@H]1CC[C@H](CCN2CCCN(c3cccc(Cl)c3Cl)CC2)CC1 [Compound 6, trans-1-{4-[2-[4-(2,3-dichlorophenyl)-hexahydro[1,4]diazepin-1-yl]-ethyl]-cyclohexyl}-3-ethyl-urea]"
> 200 nM,1 to 10 nM,168 to 172 °C,10 to 50 nM,"CN(C)C(=O)N[C@H]1CC[C@H](CCN2CCCN(c3cccc(Cl)c3Cl)CC2)CC1 [Compound 7, trans-1-{4-[2-[4-(2,3-dichlorophenyl)-hexahydro[1,4]diazepin-1-yl]-ethyl]-cyclohexyl}-3,3-dimethyl-urea]"
> 200 nM,< 1 nM,201 to 203 °C,10 to 50 nM,"O=C(N[C@H]1CC[C@H](CCN2CCN(c3cccc(Cl)c3Cl)CC2)CC1)N1CCCC1 [Compound 8, trans-N-{4-[2-[4-(2,3-dichlorophenyl)-piperazin-1-yl]-ethyl]-cyclohexyl}-pyrrolidine-1-carboxamide]"
> 200 nM,< 1 nM,–,1 to 10 nM,"O=C(N[C@H]1CC[C@H](CCN2CCCN(c3cccc(Cl)c3Cl)CC2)CC1)N1CCCC1 [Compound 9, trans-N-{4-[2-[4-(2,3-dichlorophenyl)-hexahydro[1,4]diazepin-1-yl]-ethyl]-cyclohexyl}-pyrrolidine-1-carboxamide]"
–,–,171 to 173 °C,–,"CCN(CC)C(=O)N[C@H]1CC[C@H](CCN2CCN(c3cccc(Cl)c3Cl)CC2)CC1 [Compound 10, trans-1-{4-[2-[4-(2,3-dichlorophenyl)-piperazin-1-yl]-ethyl]-cyclohexyl}-3,3-diethyl-urea]"
–,–,195 to 198 °C,–,"CCN(C)C(=O)N[C@H]1CC[C@H](CCN2CCN(c3cccc(Cl)c3Cl)CC2)CC1 [Compound 11, trans-1-{4-[2-[4-(2,3-dichlorophenyl)-piperazin-1-yl]-ethyl]-cyclohexyl}-3-ethyl-3-methyl-urea]"
–,–,293 to 296 °C,–,"O=C(N[C@H]1CC[C@H](CCN2CCN(c3cccc(Cl)c3Cl)CC2)CC1)N1CCNCC1 [Compound 14, trans-N-{4-[2-[4-(2,3-dichlorophenyl)-piperazin-1-yl]-ethyl]-cyclohexyl}-piperazine-1-carboxamide]"
–,–,166 to 168 °C,–,"CN1CCN(C(=O)N[C@H]2CC[C@H](CCN3CCN(c4cccc(Cl)c4Cl)CC3)CC2)CC1 [Compound 15, trans-N-{4-[2-[4-(2,3-dichlorophenyl)-piperazin-1-yl]-ethyl]-cyclohexyl}-4-methyl-piperazine-1-carboxamide]"
> 200 nM,< 1 nM,201 to 203 °C,–,"O=C(N[C@H]1CC[C@H](CCN2CCN(c3cccc(Cl)c3Cl)CC2)CC1)N1CCOCC1 [Compound 16, trans-N-{4-[2-[4-(2,3-dichlorophenyl)-piperazin-1-yl]-ethyl]-cyclohexyl}-morpholine-4-carboxamide]"
–,–,188 to 190 °C,–,"O=C(N[C@H]1CC[C@H](CCN2CCN(c3cccc(Cl)c3Cl)CC2)CC1)N1CCCCC1 [Compound 17, trans-N-{4-[2-[4-(2,3-dichlorophenyl)-piperazin-1-yl]-ethyl]-cyclohexyl}-piperidine-1-carboxamide]"
–,–,178 to 180 °C,–,"O=C(N[C@H]1CC[C@H](CCN2CCN(c3cccc(Cl)c3Cl)CC2)CC1)N1CCC(O)CC1 [Compound 18, trans-N-{4-[2-[4-(2,3-dichlorophenyl)-piperazin-1-yl]-ethyl]-cyclohexyl}-4-hydroxy-piperidine-1-carboxamide]"
> 200 nM,< 1 nM,–,10 to 50 nM,"C=CCNC(=O)N[C@H]1CC[C@H](CCN2CCN(c3cccc(Cl)c3Cl)CC2)CC1 [Compound 21, trans-1-Allyl-3-(4-{2-[4-(2,3-dichloro-phenyl)-piperazin-1-yl]-ethyl}-cyclohexyl)-urea]"
> 200 nM,< 1 nM,–,10 to 50 nM,"CCCCNC(=O)N[C@H]1CC[C@H](CCN2CCN(c3cccc(Cl)c3Cl)CC2)CC1 [Compound 24, trans-1-Butyl-3-(4-{2-[4-(2,3-dichloro-phenyl)-piperazin-1-yl]-ethyl}-cyclohexyl)-urea]"
> 200 nM,< 1 nM,–,–,"N#Cc1cccc(NC(=O)N[C@H]2CC[C@H](CCN3CCN(c4cccc(Cl)c4Cl)CC3)CC2)c1 [Compound 31, trans-1-(3-Cyano-phenyl)-3-(4-{2-[4-(2,3-dichloro-phenyl)-piperazin-1-yl]-ethyl}-cyclohexyl)-urea]"
> 200 nM,< 1 nM,–,10 to 50 nM,"COc1cc(NC(=O)N[C@H]2CC[C@H](CCN3CCN(c4cccc(Cl)c4Cl)CC3)CC2)cc(OC)c1OC [Compound 32, trans-1-(4-{2-[4-(2,3-Dichloro-phenyl)-piperazin-1-yl]-ethyl}cyclohexyl)-3-(3,4,5-trimethoxy-phenyl)-urea]"
> 200 nM,< 1 nM,–,–,"O=C(NC1CCCCC1)N[C@H]1CC[C@H](CCN2CCN(c3cccc(Cl)c3Cl)CC2)CC1 [Compound 33, trans-1-Cyclohexyl-3-(4-{2-[4-(2,3-dichloro-phenyl)-piperazin-1-yl]-ethyl}-cyclohexyl)-urea]"
> 200 nM,1 to 10 nM,–,10 to 50 nM,"CC(C)(C)NC(=S)N[C@H]1CC[C@H](CCN2CCN(c3cccc(Cl)c3Cl)CC2)CC1 [Compound 38, trans-1-tert-Butyl-3-(4-{2-[4-(2,3-dichloro-phenyl)-piperazin-1-yl]-ethyl}-cyclohexyl)-thiourea]"
> 200 nM,< 1 nM,–,10 to 50 nM,"CCCNC(=S)N[C@H]1CC[C@H](CCN2CCN(c3cccc(Cl)c3Cl)CC2)CC1 [Compound 42, trans-1-(4-{2-[4-(2,3-Dichloro-phenyl)-piperazin-1-yl]-ethyl}-cyclohexyl)-3-propyl-thiourea]"
> 200 nM,< 1 nM,–,10 to 50 nM,"CCOC(=O)CNC(=S)N[C@H]1CC[C@H](CCN2CCN(c3cccc(Cl)c3Cl)CC2)CC1 [Compound 44, trans-[3-(4-{2-[4-(2,3-Dichloro-phenyl)-piperazin-1-yl]-ethyl}-cyclohexyl)-thioureido]-acetic acid ethyl ester]"
> 200 nM,< 1 nM,–,10 to 50 nM,"CCNC(=S)N[C@H]1CC[C@H](CCN2CCN(c3cccc(Cl)c3Cl)CC2)CC1 [Compound 45, trans-1-(4-{2-[4-(2,3-Dichloro-phenyl)-piperazin-1-yl]-ethyl}-cyclohexyl)-3-ethyl-thiourea]"
> 200 nM,< 1 nM,–,–,"CC(C)(C)NC(=O)N[C@H]1CC[C@H](CCN2CCN(c3cccc(Cl)c3Cl)CC2)CC1 [Compound 47, trans-1-tert-Butyl-3-(4-{2-[4-(2,3-dichloro-phenyl)-piperazin-1-yl]-ethyl}-cyclohexyl)-urea]"
> 200 nM,< 1 nM,–,10 to 50 nM,"O=C(Nc1ccccc1)N[C@H]1CC[C@H](CCN2CCN(c3cccc(Cl)c3Cl)CC2)CC1 [Compound 48, trans-1-(4-{2-[4-(2,3-Dichloro-phenyl)-piperazin-1-yl]-ethyl}-cyclohexyl)-3-phenyl-urea]"
> 200 nM,< 1 nM,–,50 to 200 nM,"O=C(NCc1ccccc1)N[C@H]1CC[C@H](CCN2CCN(c3cccc(Cl)c3Cl)CC2)CC1 [Compound 49, trans-1-Benzyl-3-(4-{2-[4-(2,3-dichloro-phenyl)-piperazin-1-yl]-ethyl}-cyclohexyl)-urea]"
> 200 nM,< 1 nM,–,50 to 200 nM,"COc1ccc(NC(=O)N[C@H]2CC[C@H](CCN3CCN(c4cccc(Cl)c4Cl)CC3)CC2)cc1 [Compound 50, trans-1-(4-{2-[4-(2,3-Dichloro-phenyl)-piperazin-1-yl]-ethyl}-cyclohexyl)-3-(4-methoxy-phenyl)-urea]"
> 200 nM,< 1 nM,–,10 to 50 nM,"CCOC(=O)CNC(=O)N[C@H]1CC[C@H](CCN2CCN(c3cccc(Cl)c3Cl)CC2)CC1 [Compound 51, trans-[3-(4-{2-[4-(2,3-Dichloro-phenyl)-piperazin-1-yl]-ethyl}-cyclohexyl)-ureido]-acetic acid ethyl ester]"
